Data from ChEMBL document CHEMBL3045369 (J Neurochem, 2000).
The source made the active and inactive calls. No cut-off for these calls is given here.

Columns and labels:
[1] = molecular target: T1, Nicotinic acetylcholine receptor alpha 5 subunit (Musca domestica, UniProt A9XFY4); assay: Displacement of [3H]IMI from nicotinic acetylcholine receptor in Musca domestica (house fly) head membrane after 90 min by filter binding assay
T1 sequence (A9XFY4 whole entry): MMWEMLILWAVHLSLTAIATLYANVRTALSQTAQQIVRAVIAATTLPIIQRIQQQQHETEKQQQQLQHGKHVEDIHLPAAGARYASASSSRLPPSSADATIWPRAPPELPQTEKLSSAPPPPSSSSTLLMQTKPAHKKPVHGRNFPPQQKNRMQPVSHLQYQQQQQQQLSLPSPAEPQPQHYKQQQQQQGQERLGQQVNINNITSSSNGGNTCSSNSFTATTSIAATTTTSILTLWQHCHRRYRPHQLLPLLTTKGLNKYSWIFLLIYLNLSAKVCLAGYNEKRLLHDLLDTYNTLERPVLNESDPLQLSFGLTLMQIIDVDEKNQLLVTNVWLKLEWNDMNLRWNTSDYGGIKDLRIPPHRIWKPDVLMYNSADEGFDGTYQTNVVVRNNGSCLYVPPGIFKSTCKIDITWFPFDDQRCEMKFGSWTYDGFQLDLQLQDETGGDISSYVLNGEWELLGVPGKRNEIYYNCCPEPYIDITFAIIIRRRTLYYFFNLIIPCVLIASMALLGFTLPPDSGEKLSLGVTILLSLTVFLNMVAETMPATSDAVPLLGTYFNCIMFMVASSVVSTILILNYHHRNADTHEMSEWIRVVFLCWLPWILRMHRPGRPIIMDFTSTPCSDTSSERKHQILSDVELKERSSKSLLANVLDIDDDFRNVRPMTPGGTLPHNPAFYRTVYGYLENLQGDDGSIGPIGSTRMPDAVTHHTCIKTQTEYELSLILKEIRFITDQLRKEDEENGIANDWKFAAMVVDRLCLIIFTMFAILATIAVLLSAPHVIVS

[2] = molecular target: T2, Acetylcholine receptor subunit beta-like 2 (Drosophila melanogaster, UniProt P25162); assay: Displacement of [3H]IMI from nicotinic acetylcholine receptor in Drosophila melanogaster head membrane after 90 min by filter binding assay
T2 sequence (P25162 whole entry): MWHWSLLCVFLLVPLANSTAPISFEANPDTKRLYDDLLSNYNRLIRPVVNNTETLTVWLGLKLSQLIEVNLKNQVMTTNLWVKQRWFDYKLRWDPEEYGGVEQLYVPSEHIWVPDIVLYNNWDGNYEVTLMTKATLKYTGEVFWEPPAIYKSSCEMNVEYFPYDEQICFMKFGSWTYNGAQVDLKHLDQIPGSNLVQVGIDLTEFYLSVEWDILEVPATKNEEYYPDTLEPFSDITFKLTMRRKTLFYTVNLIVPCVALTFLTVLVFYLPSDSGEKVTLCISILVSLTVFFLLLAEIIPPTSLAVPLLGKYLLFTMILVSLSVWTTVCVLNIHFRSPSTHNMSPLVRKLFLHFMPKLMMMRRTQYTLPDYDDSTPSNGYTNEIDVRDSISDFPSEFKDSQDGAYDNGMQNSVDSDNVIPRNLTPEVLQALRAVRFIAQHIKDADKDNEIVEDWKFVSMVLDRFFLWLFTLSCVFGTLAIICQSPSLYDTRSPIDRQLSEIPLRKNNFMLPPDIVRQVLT

[3] = Displacement of [3H]IMI from nicotinic acetylcholine receptor in Myzus persicae (green peach aphid) whole body membrane after 90 min by filter binding assay
Myzus persicae = assay: Competitive inhibition of nicotinic acetylcholine receptor in Myzus persicae (green peach aphid) whole body membrane using [3H]IMI as substrate incubated for 5 min prior to substrate addition measured after 90 min by Sctachard plot analysis
[4] = molecular target: T3, Acetylcholine receptor subunit beta-like 2 (Drosophila melanogaster) (UniProt P25162); assay: Competitive inhibition of nicotinic acetylcholine receptor in Drosophila melanogaster head membrane using [3H]IMI as substrate incubated for 5 min prior to substrate addition measured after 90 min by Sctachard plot analysis
T3 sequence (whole entry): T2 sequence (P25162 whole entry)

For `O=[N+]([O-])/N=C1\NCCN1Cc1ccc(Cl)nc1` [IMIDACLOPRID], the IC50 [1] was 2.6 nM, the IC50 [2] was 2.3 nM and the IC50 [3] was 3.1 nM.
In the case of `O=[N+]([O-])/N=C1\NCOCN1Cc1cnc(Cl)s1` [DESMETHYLTHIAMETHOXAM], the IC50 [1] is reported as 16 nM, the IC50 [2] is reported as 20 nM and the inhibition (Myzus persicae) is reported as “Active”. For the same compound, the inhibition [4] was “Active” and the IC50 [3] was 10 nM.
For `CN/C(=N/CC1CCOC1)N[N+](=O)[O-]` (stereo unspecified) [DINOTEFURAN], the IC50 [2] was 5000 nM.
With `O=[N+]([O-])C=C1NCCCS1` the IC50 [2] was 4700 nM and the IC50 [3] was 3500 nM.
Compound `C/N=C(\NCc1ccc(Cl)nc1)N[N+](=O)[O-]` has an IC50 [1] of 7.1 nM, an IC50 [2] of 7.4 nM and an IC50 [3] of 15 nM.
For `O=[N+]([O-])/N=C1\NCOCN1Cc1ccc(Cl)nc1`, the IC50 [1] was 14 nM, the IC50 [2] was 22 nM and the IC50 [3] was 13 nM.
In the case of `CCN(Cc1ccc(Cl)nc1)/C(=C/[N+](=O)[O-])NC` [NITENPYRAM], the IC50 [2] is reported as 11 nM and the IC50 [3] is reported as 21 nM.
For `CN1CN(C)/C(=N\[N+](=O)[O-])N(Cc2cnc(Cl)s2)C1`, the IC50 [2] was > 1000 nM and the IC50 [3] was > 1000 nM.
`C/C(=N\C#N)N(C)Cc1ccc(Cl)nc1` [ACETAMIPRID] gave an IC50 [2] of 8.3 nM and an IC50 [3] of 10 nM.
In the case of `CN/C(=N\[N+](=O)[O-])NCc1cnc(Cl)s1` [CLOTHIANIDINE], the IC50 [1] is reported as 1.8 nM, the IC50 [2] is reported as 2.2 nM and the inhibition (Myzus persicae) is reported as “Active”. For the same compound, the inhibition [4] was “Active” and the IC50 [3] was 9.2 nM.
In the case of `N#C/N=C1\SCCN1Cc1ccc(Cl)nc1` [THIACLOPRID], the IC50 [2] is reported as 7.5 nM and the IC50 [3] is reported as 3.4 nM.
In the case of `CN1CN(C)/C(=N\[N+](=O)[O-])N(Cc2ccc(Cl)nc2)C1`, the IC50 [2] is reported as > 1000 nM and the IC50 [3] is reported as > 1000 nM.
In the case of `CCN(Cc1cnc(Cl)s1)/C(=C/[N+](=O)[O-])NC`, the IC50 [2] is reported as 160 nM and the IC50 [3] is reported as 150 nM.
`C/C(=N\C#N)N(C)Cc1cnc(Cl)s1` gave an IC50 [2] of 154 nM and an IC50 [3] of 65 nM.
Compound `N#C/N=C1\SCCN1Cc1cnc(Cl)s1` has an IC50 [2] of 94 nM and an IC50 [3] of 56 nM.
`O=[N+]([O-])/N=C1\NCCN1Cc1cnc(Cl)s1` [IMIDACLOTHIZ] showed an IC50 [1] of 12 nM, an IC50 [2] of 17 nM and an IC50 [3] of 21 nM.
